Measured values reported in patent US20250064890A1, “PROTEIN COMPOSITIONS FOR THE TREATMENT OF INFLAMMATORY DISEASES” (Unichem Laboratories Limited, priority 2021, published 2025).

Experiments:
[1] = tested on: oral (buccal) mucosa cells (TR146); assay: Restoration of mitochondrial membrane potential (JC-1) against 5-FU induced damage; type: cell-based, human; settings: for MMP: mitochondrial membrane potential, red/green JC-1 fluorescence ratio
Method: (§1) Oral buccal mucosal cells (TR146) were incubated overnight in 5% CO2 incubator at 37° C. for 24 h. […] After 24 h of treatment, cells were exposed to damage (5-FU 5 mM) for 1.25 h for chemotherapy induced inflammation and exposed to gamma radiation (3.5 kGy) using Cobalt 60 for radiation induced inflammation. After the exposure, the anti-apoptotic effect of SEQ ID NO 2 was determined by restoration of mitochondrial membrane depolarization by JC-1 staining and reduction in apoptotic cell populations (Annexin positive and subG0/G1 cells in cell cycle analysis).
(§2) After incubation, the supernatants were discarded and 100 μl of JC1-dye solution (prepared by diluting 1 mM DMSO stock into 10 μM in 1×PBS) was added to each well. The cells were then incubated with the dye in CO2 incubator at 37° C. for 15 min, after which the supernatant was removed, and the cells were washed twice with 1×PBS. 100 μl of 1×PBS was finally added to each well. Red fluorescence (excitation 550 nm, emission 600 nm) and green fluorescence (excitation 485 nm, emission 535 nm) were measured using Biotek Synergy HT plate reader. The mitochondrial membrane potential (Δψm) was calculated as the ratio of intensity of red fluorescence to intensity of green fluorescence.
(§3) The percentage increase/restoration in mitochondrial membrane potential (MMP) was calculated as: % Increase=[(R−X)/R]*100 • Where, X=Δψm corresponding to TI+5-FU treated cells or TI+radiation treated cells; R=Δψm corresponding to control cells (FU damaged or Radiation damaged alone)

[2] = tested on: oral (buccal) mucosa cells (TR146); settings: human, 24 h
Method: Non-cytotoxic concentration of recombinant lectin having the amino acid sequence of SEQ ID NO: 2 was determined by treating oral (buccal) mucosa cells (TR146) with varying concentration of SEQ ID NO: 2 for 24 hrs and determining the cell viability using MTT assay.

[3] = tested on: oral (buccal) mucosa cells (TR146); assay: Sub(G0/G1) cell population (cell cycle) against 5-FU induced damage; type: cell-based, human; settings: for % Decrease in Apoptotic cells (with respect to control): Sub G0/G1
Method: (§4) To determine the effect of test item on cell cycle, oral buccal mucosal cells (TR146) were incubated overnight in 5% CO2 incubator at 37° C. for 24 h. […] After 24 h of treatment, cells were exposed to chemotherapy (5-FU 10 mM) for 24 h or radiotherapy (Gamma radiation (3.5 kGy) using Cobalt 60) for 2 h.
(§5) After incubation, cells were harvested by trypsinization and processed for Cell cycle assay. Accordingly, cells were harvested into prelabeled centrifuge tubes and centrifuged at 450 g for 5 min at room temperature (RT, low brake). The supernatants were removed carefully and discarded. 1 ml of 1× phosphate buffer saline (PBS) was added to the pellet and resuspended gently to make homogenous suspension. Cells were centrifuged at 450 g for 5 min, RT (low brake). The supernatant was carefully removed leaving behind approx. 100 μl of PBS. Cells were resuspended gently yet thoroughly in residual PBS. Ice-cold 70% ethanol (100 μl) was added drop-wise into cells in each tube while vortexing at low speed (fixation step). Cells stored at 4° C. for 24 h were centrifuged at 450 g for 5 min, RT (low brake). The supernatant was carefully removed without touching the pellet and discarded. 1 ml of 1×PBS was added into pellet and resuspended gently. Cells were incubated for 1 minute at RT. Cells were centrifuged at 450 g for 5 min, RT (low brake). The supernatant was removed carefully without touching the pellet, leaving behind approx. 20-50 μl of PBS. 200 μl of cell cycle reagent was added into each tube. Cells were resuspended gently and mixed. Cells were incubated for 30 min at RT in the dark. The stained samples were transferred into 96-well plates and acquired on flow cytometer (Guava technologies). Percentage of cells in Sub (G0/G1) phase were determined based on the concept that cell cycle reagent contains PI stain, which stains DNA of cells in different phases of cell cycle; Sub (G0/G1), G1, S, G2 and M. Cells in Sub (G0/G1) phase correspond to apoptotic cells. Percent inhibition in apoptotic cells is determined by the formula:
(§6) =[(% Sub(G0/G1) cells in 5-FU/radiation alone)−(% Sub(G0/G1) cells in TI+5-FU/radiation)/% Sub(G0/G1) cells in 5-FU/radiation alone]*100

[4] = tested on: oral (buccal) mucosa cells (TR146); assay: Sub(G0/G1) cell population (cell cycle) against radiation induced damage; type: cell-based, human; settings: for % Decrease in Apoptotic cells (with respect to control): Sub G0/G1
Method: as §4, §5, §6

[5] = tested on: oral (buccal) mucosa cells (TR146); assay: Restoration of mitochondrial membrane potential (JC-1) against radiation induced damage; type: cell-based, human; settings: for MMP: red/green JC-1 fluorescence ratio
Method: as §1, §2, §3

[6] = tested on: oral (buccal) mucosa cells (TR146); assay: Annexin positive cell population against 5-FU damage; type: cell-based, human
[7] = tested on: oral (buccal) mucosa cells (TR146); assay: Cytoprotective effect against 5-FU induced damage (MTT); type: cell-based, human
Method: The cell viability was assessed by (MTT) assay and compared with positive control (Cells treated with Amifostine, EGCG and EGF and negative assay (untreated cells), wherein the control was the cells that underwent chemotherapy/radiotherapy.
The protective effect of the recombinant lectin on survival of TR146 cells against 5-FU induced damage was determined using following calculations:
The viability of cells was determined as: % Cell viability=(100−% Cytotoxicity); • where, the percentage cytotoxicity corresponding to each treatment was calculated as: % Cytotoxicity=[(R−X)/R]*100, wherein X=Absorbance of cells treated with 5-FU or radiation damage/TI+5-FU, R=Absorbance of Control cells (Untreated) and Percentage protection was calculated as:
{(Absorbance of TI+5-FU or radiation)−(Absorbance of 5-FU or radiation alone)/(Absorbance of Untreated)−(Absorbance of 5-FU alone)}*100

[8] = 0.1 μg/ml + Radiation (3.5 kGy)

Question: Which “% Increase in MMP (with respect to control)” value (shortened to “% Increase in MMP”) ([1]; 1 μg/ml + 5FU) does the source give for `NCCCNCCSP(=O)(O)O` [Amifostine, reference compound] here?
Answer: 68.7%

Question: And the MMP ([1]; 1 μg/ml + 5FU)?
Answer: 14.3

Question: What about the “% Increase in MMP” value ([1]; 5 μg/ml + 5FU) of the same compound?
Answer: 64.9%

Question: And the MMP ([1]; 5 μg/ml + 5FU)?
Answer: 14

Question: What about the “% Increase in MMP” value ([1]; 10 μg/ml + 5FU) of the same compound?
Answer: 85.3%

Question: And the MMP ([1]; 10 μg/ml + 5FU)?
Answer: 15.7

Question: What about the “% Increase in MMP” value ([1]; 25 μg/ml + 5FU) of the same compound?
Answer: 90%

Question: What about the MMP ([1]; 25 μg/ml + 5FU) of the same compound?
Answer: 16.1

Question: And the “% Increase in MMP” value ([1]; 50 μg/ml + 5FU)?
Answer: 105.2%

Question: What about the MMP ([1]; 50 μg/ml + 5FU) of the same compound?
Answer: 17.4

Question: And the non-cytotoxic concentration range [2]?
Answer: 1 to 25 µg/mL

Question: What about the “% Apoptotic cells (Sub G0/G1)” value ([3]; 1 μg/ml + 5FU (10 mM)) of the same compound?
Answer: 13%

Question: What about the “% Decrease in Apoptotic cells (with respect to control)” value (“% Decrease … (with respect to control)” below) ([3]; 1 μg/ml + 5FU (10 mM)) of the same compound?
Answer: 58%

Question: And the “% Apoptotic cells (Sub G0/G1)” value ([3]; 10 μg/ml + 5FU (10 mM))?
Answer: 11.4%

Question: What about the “% Decrease … (with respect to control)” value ([3]; 10 μg/ml + 5FU (10 mM)) of the same compound?
Answer: 63.2%

Question: And the “% Apoptotic cells (Sub G0/G1)” value ([3]; 25 μg/ml + 5FU (10 mM))?
Answer: 17%

Question: And the “% Decrease … (with respect to control)” value ([3]; 25 μg/ml + 5FU (10 mM))?
Answer: 45%

Question: And the “% Apoptotic cells (Sub G0/G1)” value ([3]; 50 μg/ml + 5FU (10 mM))?
Answer: 15.1%

Question: And the “% Decrease … (with respect to control)” value ([3]; 50 μg/ml + 5FU (10 mM))?
Answer: 50.9%

Question: And the “% Apoptotic cells (Sub G0/G1)” value [4, 8]?
Answer: 19.4%

Question: What about the “% Decrease … (with respect to control)” value [4, 8] of the same compound?
Answer: 45.1%

Question: What about the “% Apoptotic cells (Sub G0/G1)” value ([4]; 1 μg/ml + Radiation (3.5 kGy)) of the same compound?
Answer: 21.8%

Question: What about the “% Decrease … (with respect to control)” value ([4]; 1 μg/ml + Radiation (3.5 kGy)) of the same compound?
Answer: 38.2%

Question: What about the “% Apoptotic cells (Sub G0/G1)” value ([4]; 10 μg/ml + Radiation (3.5 kGy)) of the same compound?
Answer: 12.9%

Question: What about the “% Decrease … (with respect to control)” value ([4]; 10 μg/ml + Radiation (3.5 kGy)) of the same compound?
Answer: 63.5%

Question: What about the “% Increase in MMP” value [5, 8] of the same compound?
Answer: 28.2%

Question: And the MMP [5, 8]?
Answer: 5.90

Question: What about the “% Increase in MMP” value ([5]; 1 μg/ml + Radiation (3.5 kGy)) of the same compound?
Answer: 39.7%

Question: What about the MMP ([5]; 1 μg/ml + Radiation (3.5 kGy)) of the same compound?
Answer: 6.43

Question: And the “% Increase in MMP” value ([5]; 10 μg/ml + Radiation (3.5 kGy))?
Answer: 35.2%

Question: And the MMP ([5]; 10 μg/ml + Radiation (3.5 kGy))?
Answer: 6.23

Question: What about the “% Apoptotic cells (Annexin +ve)” value ([6]; 1 μg/ml + 5FU (10 mM)) of the same compound?
Answer: 2.4%

Question: What about the “% Decrease in Apoptotic cells (with respect to 5-FU)” value (“% Decrease … (with respect to 5-FU)” below) ([6]; 1 μg/ml + 5FU (10 mM)) of the same compound?
Answer: 85.7%

Question: And the “% Apoptotic cells (Annexin +ve)” value ([6]; 10 μg/ml + 5FU (10 mM))?
Answer: 2.6%

Question: What about the “% Decrease … (with respect to 5-FU)” value ([6]; 10 μg/ml + 5FU (10 mM)) of the same compound?
Answer: 84.5%

Question: And the “% Apoptotic cells (Annexin +ve)” value ([6]; 50 μg/ml + 5FU (10 mM))?
Answer: 2.8%

Question: What about the “% Decrease … (with respect to 5-FU)” value ([6]; 50 μg/ml + 5FU (10 mM)) of the same compound?
Answer: 82.9%

Question: And the “% Protection” value ([7]; 1 μg/ml + 5-FU (5 mM))?
Answer: 4.1%

Question: What about the “% Protection” value ([7]; 5 μg/ml + 5-FU (5 mM)) of the same compound?
Answer: 28.8%

Question: What about the “% Protection” value ([7]; 10 μg/ml + 5-FU (5 mM)) of the same compound?
Answer: 55.2%

Question: What about the “% Protection” value ([7]; 25 μg/ml + 5-FU (5 mM)) of the same compound?
Answer: 37.5%
